Here are results for 2 compounds from patent US20170128592A1, “TARGETED POLYMERIC NANO-COMPLEXES AS DRUG DELIVERY SYSTEM” (Indian Institute of Technology, Bombay, priority 2015, published 2017).

Common to all, as to format: cell-based, human
Assay [1] has as its system pEGFR expression in Huh7 cells. Kind of assay: Immunofluorescence (CLSM) of pEGFR expression. As to conditions: 48 hr. As to the method: (§1) To evaluate the effect of nanocomplexes on EGFR and tubulin interactions, Huh7 cells (5×10^4 cells/well) in 24 well plates were treated with 15 nM of CA4, PLGA-b-PEG-CA4 NP, Cet-PLGA-b-PEG-CA4 NP, 5 μM of 2 ME, PLGA-b-PEG-2 ME NP, Cet-PLGA-b-PEG-2 ME NP and combinatorial Cet-PLEA-b-PEG-CA4 NP+Cet-PLGA-b-PEG-2 ME NP (15 nM+5 μM) for 48 hr. Untreated and bare PLGA-b-PEG NP treated cells served as the negative controls. Cells were then fixed with 3.7% formaldehyde at 37° C. for 30 min and immunostained with primary antibodies anti-EGFR, anti-pEGFR XP rabbit monoclonal antibodies (Cell Signaling Technology Inc., USA), anti-α-Tubulin mouse monoclonal antibody (Signa Aldrich, USA) and anti-pHistone H3 rabbit polyclonal antibody (Ser-10, Santa Cruz Biotechnology, USA) followed by incubation with secondary antibody FITC-conjugated anti-mouse IgG or FITC-conjugated anti-rabbit IgG (Sigma Aldrich, USA) or anti-mouse IgG-Alexa 568 conjugate (Invitrogen, USA). Hoechst 33258 was used for DNA counterstaining and cells were examined under CLSM.

Assay [2] has as its system Huh7 cells. Kind of assay: Annexin V/PI apoptosis assay by flow cytometry. As to conditions: IC50 concentrations, 48 hr. As to the method:
Annexin V and Propidium iodide (PI) staining detection kit was used to quantify apoptotic cells. […] A combination of Cet-PLGA-b-PEG-CA4 NP Cet-PLEA-b-PEG-2ME NP (15 nM+5 μM) was also evaluated. Untreated and bare PLGA-b-PEG NP treated cells served as the negative controls. Cells were washed twice with PBS and resuspended in 400 μL of 1× binding buffer. Then, 5 μL of Annexin V-FITC and PI solution were added to the test samples, incubated for 15 min in dark at room temperature, and analyzed using flow cytometer BD FACS ARIA special order system equipped with the BD FACSDiva. (Becton and Dickinson, USA) software program. The fluorescence of 20,000 cells were gated and counted for each sample.
A general note: Flow cytometry measures light scatter and fluorescence of single cells or particles in a stream.

Assay [3] has as its system Huh7 cells. Put plainly: SRB cytotoxicity assay. As to conditions: Huh7, 48 hr incubation, mean ± SD of three experiments. As to the method:
For cytotoxicity measurements, Hep G2 and Huh7 cells were incubated in 96-well plates (Nunc, USA) at 5×10^4 cells/well density and then treated with bare PLGA-b-PEG NP, Cet-PLEA-b-PEG NP (50-250 μg/mL), free drug CA4, its nano-complexes ([…]) and free drug 2 ME, its nano-complexes (1-15 μM) for 48 hr. […] The standard SRB assay was used to measure the cell viabilities. The absorbance was measured with a 96-well fluorescence plate reader (SPECTRAmax M2, Molecular Devices, USA) equipped with the SOFTmax Pro software (Molecular Devices), at a 550 nun wavelength. IC50 values of the free drugs and all the nanocomplexes were evaluated using OriginPro 8.0 software.
Background: In SRB staining, fixed cells bind dye roughly in proportion to their protein.

Assay [4] deals with pHistone H3 in Huh7 cells. Kind of assay: Immunofluorescence of Histone H3 phosphorylation (Serine 10). As to conditions: 48 hr. As to the method: as §1

The IC50 is the concentration that inhibits the measured activity by half. Take `COc1ccc(/C=C\c2cc(OC)c(OC)c(OC)c2)cc1O` [CA4, combretastatin A4]: the “effect on pEGFR expression by CLSM” value in assay [1] (15 nM) is “moderately affected”. Moreover, the induction of apoptosis with Huh7 cells [2] was found to be 11.5%. Besides, the IC50 with Huh7 cells [3] worked out at 0.0149 µM. In addition, the “pHistone H3 positive cells” value in assay [4] (15 nM) was determined as 4±0.3%.
`COc1cc2c(cc1O)CC[C@@H]1[C@@H]2CC[C@]2(C)[C@@H](O)CC[C@@H]12` [2 ME, 2-methoxyestradiol]: the “effect on pEGFR expression by CLSM” value in assay [1] (5 μM) is listed as “moderately affected”. For the same compound, in the assay on Huh7 cells [2], the induction of apoptosis amounted to 2.6%. Also, the half-maximal inhibitory concentration (IC50) in the assay with Huh7 cells [3] was determined as 3.5 µM. Besides, the “pHistone H3 positive cells” value in assay [4] (5 μM) is given as 2±0.7%.
